Assay results reported in PubChem BioAssay AID464 (The Scripps Research Institute Molecular Screening Center, 2006).
Calls of active or inactive are those of the source.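 The calls were made as follows: active = Compounds that kill half the cells at a concentration of 5 micromolar or below, from the fitted or estimated CC50; inactive = CC50 above 5 micromolar.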

Tested on: Jurkat E6.1 viability, ATP luminescence, 48 h
Assay: Jurkat E6.1 cell cytotoxicity, CC50 determination, dose response, cytotoxicity control, ATP luminescence, 48 h, 60K MLSMR (AID 464)

Row | SMILES | CC50
1 | Cc1cc(NC(=O)CSc2nc(-c3ccco3)cc(C(F)(F)F)n2)n(-c2ccccc2)n1 | 4.28 µM
2 | Cc1ccc(Cl)cc1N1CCN(C(=O)COc2ccc(S(=O)(=O)NC(C)C)cc2)CC1 | 6.43 µM (inactive)
3 | C=CCN1C(=Nc2cccnc2)SCC1(O)c1ccc(C)cc1 (stereo not drawn) | 17.9 µM (inactive)
4 | Cc1nnc(Sc2nc(Sc3nnc(C)s3)nc(N3CCN(C)CC3)n2)s1 | 1.34 µM
5 | COc1ccc(C2=NOC(C(=O)NCc3ccc(F)cc3)C2)cc1OC (stereo not drawn) | 0.318 µM
6 | Cc1ccc(C(=O)CCNc2ccc(F)c(Cl)c2)o1 | 6.26 µM (inactive)
7 | CCCCn1c(CN(C)Cc2ccccc2)nc2c1c(=O)n(C)c(=O)n2C | 14.8 µM (inactive)
8 | Cc1nc(CNS(=O)(=O)c2ccc(Oc3ccccc3)cc2)cs1 | 10.6 µM (inactive)
9 | CCOC(=O)C1=C(N)n2c(s/c(=C\c3ccco3)c2=O)=C(C(=O)OCC)C1c1ccco1 (stereo not drawn) | 6.77 µM (inactive)
10 | Cc1cc2c(cc(C(=O)OCC(=O)NCc3cccs3)n2C(C)C)o1 | 0.837 µM
11 | CSc1nc2nc3c(c(=O)n2[nH]1)CN(Cc1ccccc1)CC3 | > 40 µM (inactive)
12 | O=C(NCc1cccs1)c1noc2c1CCCC2 | 7.48 µM (inactive)
13 | Cn1c(-c2ccccc2)cc2c3no[n+]([O-])c3ccc21 | 2.41 µM
14 | Nc1c(C(=O)Nc2ccc3c(c2)OCCO3)nnn1CCc1ccccc1 | 4.23 µM
15 | Cc1ccc(C(=O)N2CCN(c3cccc(Cl)c3)CC2)cc1C | 19.1 µM (inactive)
16 | CCc1cc2c(=O)n(Cc3ccco3)c(SCc3c(C)noc3C)nc2s1 | 4.4 µM
17 | COc1ccc(C(O)c2nc3ccccc3n2C)cc1OC (stereo not drawn) | 5.83 µM (inactive)
18 | Cc1cccc2cc3c(N)c(C(=O)N4CCOCC4)sc3nc12 | 0.95 µM
19 | CCOC(=O)N1CCN(C(=O)c2cc(-c3ccc(OCC)cc3)nc3ccccc23)CC1 | 1.69 µM
20 | CCOC(=O)C1(N(CC)CC)Sc2cc(C)ccc2NC1=O (stereo not drawn) | 8.81 µM (inactive)
21 | O=C(CSc1ncnc2sc3c(c12)CCCCC3)NCc1ccco1 | 9.83 µM (inactive)
22 | CCCCCN=Cc1c(C)[nH]n(-c2nc3ccccc3s2)c1=O | 6.35 µM (inactive)

Row | SMILES | CC50
23 | COc1cccc2sc(Nc3nnc(-c4ccccc4Cl)o3)nc12 | 1.13 µM
24 | CCCCCCOc1ccc(/C(N)=N/O)cc1 | 6.87 µM (inactive)
25 | O=c1c2ccccc2nnn1CSc1nnc(-c2cccs2)n1Cc1ccccc1 | > 40 µM (inactive)
26 | O=C(Nc1nc2ccccc2[nH]1)c1ccccc1F | 4.79 µM
27 | CCOC(=O)c1[nH]c2c(c1C)C(=O)CC(c1ccco1)C2 (stereo not drawn) | 0.201 µM
28 | CCOC(=O)c1nc(S(C)(=O)=O)ncc1Cl | 4.66 µM
29 | CCOC(=O)c1oc2ccc(S(=O)(=O)Nc3ccc4c(c3)n(C)c(=O)n4C)cc2c1C | 11.3 µM (inactive)
30 | Cc1ccc(Nc2cc(C)nn2-c2nc(C)cc(=O)[nH]2)cc1 | 1.31 µM
31 | COc1ccc(C)cc1Nc1cc(C)nc2nc(C)nn12 | 7.08 µM (inactive)
32 | CC(=O)c1sc(NC(=O)C2(F)C(F)(F)C(F)(F)C(F)(F)C(F)(F)C2(F)F)nc1C | > 13 µM (inactive)
33 | Cc1[nH]c2c(C(F)(F)F)cccc2c1CCN | 10.4 µM (inactive)
34 | Cc1cccc(N2CCN(C(=O)c3ccc(CS(=O)(=O)c4ccccc4C)o3)CC2C)c1 (stereo not drawn) | 0.785 µM
35 | CCOc1ccc(S(=O)(=O)Nc2cc(OC)ccc2OC)cc1 | 0.145 µM
36 | CCCOc1ccccc1C1CC(=O)Nc2cc3c(cc21)OCCO3 (stereo not drawn) | 0.745 µM
37 | Cc1nc(C)c(C(=O)Nc2ccc(Oc3ccccc3)cc2)o1 | 19.4 µM (inactive)
38 | COc1ccccc1N1CCN(C(=O)C2c3ccccc3Oc3ccccc32)CC1 | 1.27 µM
39 | Cc1cc(=O)oc2cc(OCC(=O)N3c4ccccc4CC3C)ccc12 (stereo not drawn) | 0.756 µM
40 | O=C(Nc1ccc(N2CCOCC2)cc1)Nc1ccc2nc(-c3ccco3)c(-c3ccco3)nc2c1 | 10.4 µM (inactive)
41 | CCOC(=O)Nc1c(C(=O)OC)[nH]c2cc(OC)ccc12 | 7.94 µM (inactive)
42 | COCCOC(=O)c1[nH]c2c(c1C)C(=O)CC(c1ccc(F)cc1)C2 (stereo not drawn) | 5.37 µM (inactive)
43 | Cn1cc(/C=N/n2cnc3scc(-c4ccccc4)c3c2=O)c2ccccc21 | 1.1 µM
